Laboratory results published in publication PMC7839693 (Chemistry (Weinheim an Der Bergstrasse, Germany), 2020).

Tests used:
[1] = cited from earlier work
[2] = cited from earlier work; remark: listed apart in the source
[3] = Pilot experiment: stability of Cry-55gly under alkaline conditions; type: physicochemical; conditions: LiOH/H2O, 0 °C, 30 minutes, HPLC-MS
M21 human melanoma cells = assay: In vitro cytotoxicity assay; type: cell-based; conditions: incubated alone (no β-glucuronidase)
human integrin αvβ3 = human integrin αvβ3 (Homo sapiens, UniProt P05106+P06756, DEL719-788); assay: Solid-phase receptor binding assay
E. coli β‐glucuronidase = E. coli β‐glucuronidase (Escherichia coli, UniProt P05804); assay: β-glucuronidase cleavage assay / drug release; type: in vitro ADME

SMILES	stability in mouse plasma [1]	stability in human plasma [2]	conversion into the epoxide (cryptophycin-52, 4) [3] [%]	decreased activity relative to the free drug 3 (M21 human melanoma cells) [fold]	IC50 (human integrin αvβ3) [nM]	release of Cry-55gly after β-glucuronidase cleavage (E. coli β‐glucuronidase; E. coli β-glucuronidase 200 U mL-1, 37 °C, 60 min, HPLC and UPLC-MS)	stability in the absence of enzyme (control) (E. coli β‐glucuronidase; control experiments without β-glucuronidase, buffer, 37 °C, HPLC)
COc1ccc(C[C@H]2NC(=O)/C=C/C[C@@H]([C@H](C)[C@@H](OC(=O)CN)[C@@H](Cl)c3ccccc3)OC(=O)[C@H](CC(C)C)OC(=O)C(C)(C)CNC2=O)cc1Cl [compound 3, cryptophycin‐55 glycinate]	excellent stability	excellent stability	70				
COc1ccc(C[C@H]2NC(=O)/C=C/C[C@@H]([C@H](C)[C@@H](OC(=O)CNC(=O)OCc3cc(NC(=O)CCCc4cn(CCC(=O)NCCCC[C@@H]5NC(=O)[C@@H](Cc6ccccc6)NC(=O)[C@H](CC(=O)O)NC(=O)CNC(=O)[C@H](CCCNC(=N)N)NC5=O)nn4)cc(O[C@@H]4O[C@H](C(=O)O)[C@@H](O)[C@H](O)[C@H]4O)c3)[C@@H](Cl)c3ccccc3)OC(=O)[C@H](CC(C)C)OC(=O)C(C)(C)CNC2=O)cc1Cl [compound 2, c(RGDfK)‐(m)‐GlcA‐linker‐Cry‐55gly]				70	11.7	not released over time	stable
